Source: patent publication US6660769B1, “N substituted 3-amino-2,2-di-c-alkyl-1,4-butyrolactones and 1,4-thiobutyrolactones for use as promoter of γ-aminobutyric acid activity and for treating nervous disorders and preparation method” (priority 1999, dated 2003)
“And” between values parts separate entries of the source, which are not always exact repeats. Equal entries are not always repeated. Where two headings read alike, the source gives them in different places.

Columns and labels:
[1] = test system: picrotoxin binding site of the GABA-A receptor; details: for IC50: read-out: IC50 of S^35-TBPS displacement
[2] = molecular target: T1, α1β2γ2 recombinant GABA-A receptors (Homo sapiens, UniProt P14867+P18507+P47870); test: cell-based
T1 construct: expressed in transfected cells; host or cells: Xenopus laevis oocytes injected with cRNA
T1 sequence (P14867 28-456): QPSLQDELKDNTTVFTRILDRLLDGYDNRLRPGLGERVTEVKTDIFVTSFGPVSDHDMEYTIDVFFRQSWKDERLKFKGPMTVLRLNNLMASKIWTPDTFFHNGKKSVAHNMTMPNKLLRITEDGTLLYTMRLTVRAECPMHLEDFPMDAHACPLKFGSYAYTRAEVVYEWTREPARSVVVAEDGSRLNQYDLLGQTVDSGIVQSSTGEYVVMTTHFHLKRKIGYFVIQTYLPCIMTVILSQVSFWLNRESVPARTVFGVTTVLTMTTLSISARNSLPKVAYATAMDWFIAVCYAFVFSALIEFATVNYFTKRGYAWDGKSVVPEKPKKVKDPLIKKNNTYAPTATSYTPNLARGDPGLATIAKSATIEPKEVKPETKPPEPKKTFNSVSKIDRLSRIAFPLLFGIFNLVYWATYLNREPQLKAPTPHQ
T1 sequence (P47870 25-512 limits assumed): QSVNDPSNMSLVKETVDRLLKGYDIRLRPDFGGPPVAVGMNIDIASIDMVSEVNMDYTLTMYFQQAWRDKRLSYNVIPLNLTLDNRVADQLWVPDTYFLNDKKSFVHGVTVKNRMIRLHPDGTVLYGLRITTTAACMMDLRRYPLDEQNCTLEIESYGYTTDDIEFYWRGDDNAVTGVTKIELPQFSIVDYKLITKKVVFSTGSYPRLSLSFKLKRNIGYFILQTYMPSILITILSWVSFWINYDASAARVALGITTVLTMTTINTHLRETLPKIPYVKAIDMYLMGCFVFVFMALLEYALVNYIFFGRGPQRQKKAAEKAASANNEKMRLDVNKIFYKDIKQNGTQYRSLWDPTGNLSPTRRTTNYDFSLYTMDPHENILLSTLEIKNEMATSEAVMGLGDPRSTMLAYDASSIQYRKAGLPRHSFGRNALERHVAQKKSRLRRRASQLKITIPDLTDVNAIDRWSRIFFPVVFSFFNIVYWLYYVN
T1 sequence (P18507 40-475): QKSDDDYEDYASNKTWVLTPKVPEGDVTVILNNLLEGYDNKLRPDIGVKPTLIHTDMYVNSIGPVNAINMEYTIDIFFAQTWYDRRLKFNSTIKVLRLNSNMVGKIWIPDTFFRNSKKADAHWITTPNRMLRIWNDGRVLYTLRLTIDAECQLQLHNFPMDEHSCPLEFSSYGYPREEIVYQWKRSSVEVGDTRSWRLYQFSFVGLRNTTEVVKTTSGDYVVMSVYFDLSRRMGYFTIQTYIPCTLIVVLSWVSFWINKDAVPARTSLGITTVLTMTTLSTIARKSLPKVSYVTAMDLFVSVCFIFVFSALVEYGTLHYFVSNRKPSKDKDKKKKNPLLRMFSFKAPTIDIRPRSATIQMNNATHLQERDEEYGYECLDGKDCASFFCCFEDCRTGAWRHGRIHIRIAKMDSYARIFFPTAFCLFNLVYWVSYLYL

[3] = test system: benzodiazepine binding site of the GABA-A receptor; test: [H3]flunitrazepam displacement, brain membranes
[4] = test system: GABA binding site of the GABA-A receptor; test: [H3]muscimol displacement, brain membranes; details: 100 μM
[5] = Solubility noted in the electrophysiological test
mice = details: attacks induced by pentylenetetrazole and picrotoxin; cited from earlier work
[6] = molecular target: picrotoxin binding site of the GABA-A receptor; details: published compounds; read-out: Displacement of S^35-TBPS (IC50); cited from earlier work
[7] = test system: GABA currents in cultured neurons; details: cited from earlier work
[8] = 200 μM, α1β2γ2, read-out: % of stimulation of the GABA currents
[9] = α1β2γ2, read-out: % of stimulation of the GABA currents

Compound: 3-Benzylamino-3,3-di(C-allyl)-1,4-butyrolactone [Compound 16]
- Inhibition of the radiolabeled ligands % TBPS ([1]; 100 μM): 62%
- % of stimulation of the GABA currents ([2]; 200 μM, α1β2γ2): +115 ± 30%

Compound: C[C@H]1C(=O)OC[C@H]1NC(=O)OCc1ccccc1 (relative stereo) [Compound 27, cis-3-benzyloxycarbonylamino-2-(C-methyl)-1,4-butyrolactone]
- Inhibition of the radiolabeled ligands % Flu ([3]; 100 μM): 0%
- Inhibition of the radiolabeled ligands % TBPS ([1]; 100 μM): 0%
- stimulation of muscimol binding (printed in the % Muscimol inhibition column) [4]: 10% stimulation
- % of stimulation of the GABA currents ([2]; 50 μM, α1β2γ2): −1 ± 2%

Compound: C[C@@H]1C(=O)OC[C@H]1NC(=O)OCc1ccccc1 (relative stereo) [Compound 28, trans-3-benzyloxycarbonylamino-2-(C-methyl)-1,4-butyrolactone]
- Inhibition of the radiolabeled ligands % Flu ([3]; 100 μM): 0%
- Inhibition of the radiolabeled ligands % TBPS ([1]; 100 μM): 0%
- Inhibition of the radiolabeled ligands % Muscimol [4]: 0%
- stimulating activities for the GABA current (in words) [2]: low stimulating activities
- % of stimulation of the GABA currents ([2]; 50 μM, α1β2γ2): −7 ± 7%

Compound: C[C@@H]1C(=O)OC[C@H]1N(Cc1ccccc1)C(=O)OCc1ccccc1 (relative stereo) [Compound 42, trans-3-(N-benzyl-N-benzyloxycarboyl)amino-2-(C-methyl)-1,4-butyrolactone]
- Inhibition of the radiolabeled ligands % Flu ([3]; 100 μM): 0%
- Inhibition of the radiolabeled ligands % TBPS ([1]; 10 μM): 15%
- Inhibition of the radiolabeled ligands % TBPS ([1]; 100 μM): 52%
- % of stimulation of the GABA currents ([2]; 200 μM, α1β2γ2): +3 ± 10%

Compound: C[C@@H]1C(=O)OC[C@@H]1N(Cc1ccccc1)C(=O)OCc1ccccc1 (relative stereo) [Compound 43, cis-3-(N-benzyl-N-benzyloxycarboyl)amino-2-(C-methyl)-1,4-butyrolactone]
- Inhibition of the radiolabeled ligands % Flu ([3]; 10 μM): 20%
- Inhibition of the radiolabeled ligands % Flu ([3]; 100 μM): 30%
- Inhibition of the radiolabeled ligands % TBPS ([1]; 10 μM): 35%
- Inhibition of the radiolabeled ligands % TBPS ([1]; 100 μM): 60%
- Inhibition of the radiolabeled ligands % Muscimol [4]: 0%
- % of stimulation of the GABA currents ([2]; 200 μM, α1β2γ2): −3 ± 3%

Compound: O=C1CC(NC(=O)OCc2ccccc2)CO1 (centres unmarked) [Compound 26, 3-Benzyloxycarbonylamino-1,4-butyrolactone]
- Inhibition of the radiolabeled ligands % Flu ([3]; 100 μM): 0%
- Inhibition of the radiolabeled ligands % TBPS ([1]; 100 μM): 0%
- Inhibition of the radiolabeled ligands % Muscimol [4]: 0%
- stimulating activities for the GABA current (in words) [2]: low stimulating activities
- % of stimulation of the GABA currents ([2]; 0.1 μM, α1β2γ2): +47 ± 90%
- % of stimulation of the GABA currents ([2]; 200 μM, α1β2γ2): +47 ± 9%

Compound: CCCC1(CCC)C(=O)OCC1NC(=O)OCc1ccccc1 (centres unmarked) [Compound 30, 3-Benzyloxycarbonylamino-2,2-(C-dipropyl)-1,4-butyrolactone]
- Inhibition of the radiolabeled ligands % Flu ([3]; 100 μM): 0%
- Inhibition of the radiolabeled ligands % TBPS ([1]; 10 μM): 0 10 μM) %
- Inhibition of the radiolabeled ligands % TBPS ([1]; 100 μM): 55%
- Inhibition of the radiolabeled ligands % Muscimol [4]: 0%
- activation at 1 µM ([2]; 1 μM, α1β2γ2, read-out: % of stimulation of the GABA currents): 15%
- activation at 10 µM ([2]; 10 μM, α1β2γ2, read-out: % of stimulation of the GABA currents): 140%
- activation at 50 µM ([2]; 50 μM, α1β2γ2, read-out: % of stimulation of the GABA currents): 250%
- activation at 200 µM [2, 8]: 51%

Compound: CCCC1(CCC)C(=O)OCC1NS(=O)(=O)c1ccc(Cl)cc1 (centres unmarked) [Compound 31, 3-(p-Chlorophenylsulfonamido)-2,2-di(C-propyl)-1,4-butyrolactone]
- IC50 [1]: 10 µM and ~10 µM
- Inhibition of the radiolabeled ligands % Muscimol [4]: 0%
- activation at 5 µM ([2]; 5 μM, α1β2γ2, read-out: % of stimulation of the GABA currents): 23%
- insoluble at (concentration) ([5]; in the GABA current test): insoluble at higher concentrations
- solubility ([5]; pH 7.4): > 5 µM

Compound: CCCC1(CCC)C(=O)OCC1NS(=O)(=O)c1ccc(C(F)(F)F)cc1 (centres unmarked) [Compound 32, 3-(p-Trifluoromethylphenylsulfonamido)-2,2-di(C-propyl)-1,4-butyrolactone]
- stimulation of the binding of flunitrazepam (printed in the % Flu inhibition column) ([3]; 100 μM): 15-20%
- Inhibition of the radiolabeled ligands % TBPS ([1]; 10 μM, anterior part of the brain): 100%
- Inhibition of TBPS in the cerebellum ([1]; cerebellum): incomplete
- Inhibition of the radiolabeled ligands % Muscimol [4]: 0%

Compound: CCCC1(CCC)C(=O)OCC1NS(=O)(=O)c1ccc(OC)cc1 (centres unmarked) [Compound 33, 3-(p-Methoxyphenylsulfonamido)-2,2-di(C-propyl)-1,4-butyrolactone]
- stimulation of the binding of flunitrazepam (printed in the % Flu inhibition column) ([3]; 100 μM): weak
- IC50 [1]: 50 µM
- Inhibition of the radiolabeled ligands % Muscimol [4]: 0%

Compound: CCCC1(CCC)C(=O)OCC1NC(=O)c1ccccc1 (centres unmarked) [Compound 34]
- stimulation of the binding of flunitrazepam (printed in the % Flu inhibition column) ([3]; 100 μM): weak stimulation and weak
- Inhibition of the radiolabeled ligands % Muscimol [4]: 0%
- activation at 2 µM [2, 9]: 17%
- activation at 20 µM [2, 9]: 207%
- activation at 200 µM [2, 8]: 420%

Compound: C=CCOC(=O)NC1COC(=O)C1(CCC)CCC (centres unmarked) [Compound 35, 3-Allyloxycarbonylamino-2,2-di(C-propyl)-1,4-butyrolactone]
- stimulation of the binding of flunitrazepam (printed in the % Flu inhibition column) ([3]; 100 μM): weak stimulation and weak
- Inhibition of the radiolabeled ligands % Muscimol [4]: 0%
- times more powerful than α-EMTBL in stimulating the currents produced by GABA [2]: up to 100 times
- activation at 2 µM [2, 9]: 26%
- activation at 20 µM [2, 9]: 229%
- activation at 200 µM [2, 8]: 765%

Compound: CCCC1(CCC)C(=O)OCC1NC(=O)OCC (centres unmarked) [Compound 36, 3-Ethyloxycarbonylamino-2,2-di(C-propyl)-1,4-butyrolactone]
- Inhibition of the radiolabeled ligands % Flu ([3]; 100 μM): 0%
- IC50 [1]: > 100 µM
- Inhibition of the radiolabeled ligands % Muscimol [4]: 0%

Compound: CCC1(C)COC(=O)C1 (centres unmarked) [Compound 54]
- convulsant or anticonvulsant effect in mice (mice): convulsant effects

Compound: CCC1(C)CCOC1=O (centres unmarked) [Compound 55]
- IC50 [6]: 2300 µM
- % of stimulation of GABA (concentration) ([7]; 300 μM): +101 ± 8%
- convulsant or anticonvulsant effect in mice (mice): anticonvulsant properties

Compound: CCC1(CC)CCNC1=O [Compound 58]
- IC50 [6]: 5800 µM
- % of stimulation of GABA (concentration) ([7]; 1 μM): +137 ± 6%

Compound: CC1(CC(F)(F)F)CCSC1=O (centres unmarked) [Compound 60]
- IC50 [6]: 520 µM
- % of stimulation of GABA (concentration) ([7]; 300 μM): +160 ± 17%

Compound: CC1(CC(F)(F)F)CCOC1=O (centres unmarked) [Compound 61]
- IC50 [6]: 3100 µM
- % of stimulation of GABA (concentration) ([7]; 1 μM): +146 ± 12%
